# Data published in publication PMC9967538, “Cytotoxic Effect of Phenylethanoid Glycosides Isolated from Plantago lanceolata L” (Life, 2023).
# Read-outs that look alike come from different tables or passages of the source.
# Tests used:
# [1] = MTT cell proliferation assay, OVCAR-3; format: cell-based, human; details: human
# [2] = system: OVCAR-3 ovarian cancer cell line; test: MTT cell proliferation assay, OVCAR-3; format: cell-based, human; details: for IC50: Homo sapiens, MTT, estimation ± SE
# [3] = MTT cell proliferation assay, MCF-7; format: cell-based, human; details: human
# [4] = system: MCF-7 breast adenocarcinoma cell line; test: MTT cell proliferation assay, MCF-7; format: cell-based, human; details: for IC50: Homo sapiens, MCF7, MTT, estimation ± SE
# [5] = MTT cell proliferation assay, MDA-MB-231; format: cell-based, human; details: human
# [6] = system: MDA-MB-231 breast adenocarcinoma cell line; test: MTT cell proliferation assay, MDA-MB-231; format: cell-based, human; details: for IC50: Homo sapiens, MTT, estimation ± SE
# [7] = MTT cell proliferation assay, MCF-12A; format: cell-based, human; details: human
# [8] = system: MCF-12A nontumorigenic mammary epithelial cell line; test: MTT cell proliferation assay, MCF-12A; format: cell-based, human; details: Homo sapiens, MCF-12A
# [9] = format: cell-based; details: human
# [10] = system: Caco-2 colorectal adenocarcinoma cell line; test: MTT cell proliferation assay, Caco-2; format: cell-based; details: Homo sapiens, estimation ± SE
# [11] = MTT cell proliferation assay, HepG2; format: cell-based, human; details: human
# [12] = system: HepG2 hepatocarcinoma cell line; test: MTT cell proliferation assay, HepG2; format: cell-based, human; details: Homo sapiens, MTT, estimation ± SE
# [13] = system: lymphocytic leukemia cells P-388; design: method as in PMID 2380718; details: cited from earlier work
# [14] = system: d R Lh-84 cells (rat liver cancer); design: method as in PMID 8593444; details: cited from earlier work
# [15] = system: HeLa (human epithelial carcinoma); design: method as in PMID 8593444; details: cited from earlier work
# S-180 (sarcoma) = system: S-180 (sarcoma); design: method as in PMID 8593444; details: cited from earlier work
# [16] = system: P-388/D1 (mouse lymphoid tumor); design: method as in PMID 8593444; details: cited from earlier work
# [17] = system: HL-60 promyelocytic leukemia cells; design: method as in PMID 9477175; details: HL-60 cell death; cited from earlier work
# protein kinase C (PKC) = details: cited from earlier work
# [18] = system: MCF-7 breast cancer cells; design: method as in PMID 34719192; details: cell counting kit 8, cited from earlier work
# MDA-MB 231 cells = system: MDA-MB 231 cells; design: method as in PMID 34719192; details: cell counting kit 8, cited from earlier work
# [19] = system: pre-senescent normal human diploid fibroblasts; design: method as in PMID 29505920; details: 3-week treatment; cited from earlier work
# [20] = system: glioblastoma cell line T98G; design: method as in PMID 36551708; details: cited from earlier work
# [21] = system: C6 rat glioblastoma cell line; design: method as in PMID 30664150; details: C6 cells, administered separately, cited from earlier work
compound,measurement,setting,value
C[C@@H]1O[C@@H](O[C@@H]2[C@@H](O)[C@H](OCCc3ccc(O)c(O)c3)O[C@H](CO)[C@H]2OC(=O)/C=C/c2ccc(O)c(O)c2)[C@H](O)[C@H](O)[C@H]1O [Acteoside],viability at 200 µM,[1],≤ 30%
same,IC50,"[2]; OVCAR-3, 24 h",314 ± 3.52 µM
same,IC50,"[2]; OVCAR-3, 48 h",232 ± 5.08 µM
same,IC50,"[2]; OVCAR-3, 72 h",163 ± 3.41 µM
same,toxic effect (in words),"[2]; OVCAR-3, 200 μM, after 24 h of treatment",highly toxic effect
same,viability at 200 µM,[3],≤ 30%
same,IC50,"[4]; MCF-7, 24 h",219.1 ± 1.4 µM
same,IC50,"[4]; MCF-7, 48 h",154 ± 2.71 µM
same,IC50,"[4]; MCF-7, 72 h",113 ± 2.81 µM
same,toxic effect (in words),"[4]; MCF-7, 200 μM, after 24 h of treatment",highly toxic effect
same,viability at 200 µM,[5],≤ 30%
same,IC50,"[6]; MDA-MB-231, 24 h",312 ± 3.28 µM
same,IC50,"[6]; MDA-MB-231, 48 h",245 ± 4.96 µM
same,IC50,"[6]; MDA-MB-231, 72 h",200 ± 2.45 µM
same,toxic effect (in words),"[6]; MDA-MB-231, 200 μM, after 24 h of treatment",highly toxic effect
same,viability at 400 µM,[7],< 30%
same,IC50,"[8]; 24 h, MTT, estimation ± SE, read-out: IC50",362.3 ± 1.86 µM
same,IC50,"[8]; 48 h, MTT, estimation ± SE, read-out: IC50",347 ± 3.67 µM
same,IC50,"[8]; 72 h, MTT, estimation ± SE, read-out: IC50",326 ± 3.89 µM
same,IC50,"[8]; time not stated, summary of Table 1, read-out: IC50 (potency against the MCF-12A line)",~300 µM
same,viability at 200 µM,[9],≤ 30%
same,IC50,"[10]; Caco-2, 24 h, values exceeding 500 μM determined with CompuSyn from dose-response curve estimation",> 500 µM
same,IC50,"[10]; Caco-2, 48 h",467 ± 8.71 µM
same,IC50,"[10]; Caco-2, 72 h",280 ± 6.13 µM
same,viability at 200 µM,[11],≤ 30%
same,IC50,"[12]; HepG2, 24 h",261 ± 3.52 µM
same,IC50,"[12]; HepG2, 48 h",220 ± 2.65 µM
same,IC50,"[12]; HepG2, 72 h",173.8 ± 1.59 µM
same,ED50,"[13]; lymphocytic leukemia cells P-388, converted from µg/mL",4.16 µM
same,ED50,[13]; lymphocytic leukemia cells P-388,2.6 µg/mL
same,IC50,[14],61.98 µg/mL
same,IC50,"[14]; converted from µg/mL, read-out: IC50",99.2 µM
same,IC50,"[15]; HeLa (human epithelial carcinoma), first value listed, converted, read-out: IC50",> 320 µM
same,IC50,"[15]; HeLa (human epithelial carcinoma), first value listed",> 200 µg/mL
same,IC50,"[15]; HeLa cells, second value listed, converted, read-out: IC50",12.5 µM
same,IC50,"S-180 (sarcoma); S-180, converted from µg/mL, read-out: IC50",47.4 µM
same,IC50,S-180 (sarcoma); S-180,29.6 µg/mL
same,IC50,"[16]; P-388/D1, converted from µg/mL, read-out: IC50",354 µM
same,IC50,[16]; P-388/D1,221.0 µg/mL
same,IC50,[17],26.7 µM
same,inhibition of protein kinase C (in words),protein kinase C (PKC),inhibitor
same,IC50,"[18]; MCF-7, 24 h exposure",0.127 µM
same,IC50,"[18]; MCF-7, 48 h exposure",0.217 µM
same,IC50,"[18]; MCF-7, 72 h exposure",0.283 µM
same,IC50,"MDA-MB 231 cells; MDA-MB 231, 24 h exposure",0.16 µM
same,IC50,"MDA-MB 231 cells; MDA-MB 231, 48 h exposure",0.258 µM
same,IC50,"MDA-MB 231 cells; MDA-MB 231, 72 h exposure",0.256 µM
same,cytotoxic effect (in words),[19],no cytotoxic effect
same,IC50,[20],85 µM
same,cell viability,[21]; 50 µM,~80%
"O=c1cc(-c2ccc(O)c(O)c2)oc2c([C@@H]3O[C@H](CO)[C@@H](O)[C@H](O)[C@H]3O)c(O)cc(O)c12 [orientin, reference compound]",IC50,[20],> 100 µM
"Cn1nnc2c(C(N)=O)ncn2c1=O [temozolomide, reference compound]",cell viability,[21]; 5 mM,ca. 52%
